Source: ChEMBL document CHEMBL1201862, “PubChem BioAssay data set” (2004)
The source made the active and inactive calls.

Tests used:
[1] = bead-based luminescence quenchers, dual-tagged ARNT – biochemical, AlphaScreen, cherry-pick, artefact control for ARNT-TACC3 interaction inhibitor project, dose response (AID 651705); type: functional;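 note: AlphaScreen bead proximity signal that flags compounds interfering with the detection technology; potency reflects signal decrease which marks the compound as an assay artifact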
[2] = Counterscreen for inhibitors of Trypanosoma brucei methionyl tRNA synthetase (MetRS): Luminescence-based cell-based high throughput dose response assay to identify compounds that are cytotoxic to Jurkat human T lymphocyte cells.; type: functional
[3] = biological target: T1, Methionyl-tRNA synthetase, putative (Trypanosoma brucei brucei, UniProt Q38C91); type: functional, Trypanosoma brucei brucei strain 927/4 GUTat10.1
T1 sequence (Q38C91 whole entry): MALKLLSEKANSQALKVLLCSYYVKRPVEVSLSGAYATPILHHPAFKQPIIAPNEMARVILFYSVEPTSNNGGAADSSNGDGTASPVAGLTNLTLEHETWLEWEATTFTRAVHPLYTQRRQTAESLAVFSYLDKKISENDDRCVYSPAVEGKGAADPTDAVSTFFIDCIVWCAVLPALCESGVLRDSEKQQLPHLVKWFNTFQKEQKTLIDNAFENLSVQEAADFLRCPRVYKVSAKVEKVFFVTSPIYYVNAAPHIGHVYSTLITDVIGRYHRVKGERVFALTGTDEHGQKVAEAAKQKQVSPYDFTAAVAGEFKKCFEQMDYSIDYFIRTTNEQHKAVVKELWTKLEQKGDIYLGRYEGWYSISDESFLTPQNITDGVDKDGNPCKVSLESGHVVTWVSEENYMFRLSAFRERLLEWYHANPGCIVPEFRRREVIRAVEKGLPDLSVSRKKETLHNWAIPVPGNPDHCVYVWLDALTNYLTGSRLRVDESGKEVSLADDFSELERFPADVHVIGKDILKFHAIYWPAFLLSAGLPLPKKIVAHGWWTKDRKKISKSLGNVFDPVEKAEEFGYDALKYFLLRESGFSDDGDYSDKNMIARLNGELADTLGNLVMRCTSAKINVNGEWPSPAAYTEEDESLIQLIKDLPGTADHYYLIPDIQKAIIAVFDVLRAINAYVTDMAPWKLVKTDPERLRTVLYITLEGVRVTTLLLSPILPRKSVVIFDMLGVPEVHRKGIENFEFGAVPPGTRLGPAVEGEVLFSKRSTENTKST

[4] = NIH3T3 cell viability loss – ATP luminescence, mouse fibroblasts, counter-screen, dose response (AID 2010); type: functional, cell-based;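 note: cells exposed to compound for about 90 hours before reading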
[5] = Trypanosoma cruzi growth suppression in host cells – NIH3T3 host cells, beta-gal luminescence, confirmation (AID 2044); type: functional, cell-based;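 note: intracellular parasites grown in NIH/3T3 mouse fibroblasts as host cells; luminescent beta-galactosidase reporter signal from transgenic T. cruzi replicating inside host cells; inhibitors lower the luminescence signal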
[6] = biological target: T1, Methionyl-tRNA synthetase, putative; type: functional, Trypanosoma brucei brucei strain 927/4 GUTat10.1; remark: listed apart in the source
[7] = biological target: T2, Low molecular weight phosphotyrosine protein phosphatase (Homo sapiens, UniProt P24666); type: functional; details: read-out: IC50_Mean
T2 sequence (P24666 whole entry): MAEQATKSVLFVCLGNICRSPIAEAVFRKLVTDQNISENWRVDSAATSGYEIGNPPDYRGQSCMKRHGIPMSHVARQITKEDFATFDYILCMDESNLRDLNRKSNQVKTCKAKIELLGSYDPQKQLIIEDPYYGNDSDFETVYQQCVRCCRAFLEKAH

[8] = biological target: T2, Low molecular weight phosphotyrosine protein phosphatase; type: functional; details: read-out: IC50_Mean; remark: listed apart in the source
[9] = biological target: T3, Small ubiquitin-related modifier 1 (Homo sapiens, UniProt P63165); assay: SUMO1 protein-protein binding blockers, potency – biochemical, FRET, dose response (AID 624383); type: functional; details: read-out: IC50_Mean
T3 sequence (P63165 whole entry, the tested form may be a part): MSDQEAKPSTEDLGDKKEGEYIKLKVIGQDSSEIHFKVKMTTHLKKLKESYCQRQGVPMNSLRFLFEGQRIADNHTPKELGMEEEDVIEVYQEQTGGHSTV

[10] = biological target: Arf-GAP with SH3 domain, ANK repeat and PH domain-containing protein 1 (Homo sapiens, UniProt Q9ULH1); type: functional;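 note: biochemical fluorescence polarization dose–response screen measuring inhibition of ASAP1; ASAP1 GAP domain stimulating GTP hydrolysis by truncated human ARF1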
Sequence of Arf-GAP with SH3 domain, ANK repeat and PH domain-containing protein 1 (Q9ULH1 whole entry, the tested form may be a part): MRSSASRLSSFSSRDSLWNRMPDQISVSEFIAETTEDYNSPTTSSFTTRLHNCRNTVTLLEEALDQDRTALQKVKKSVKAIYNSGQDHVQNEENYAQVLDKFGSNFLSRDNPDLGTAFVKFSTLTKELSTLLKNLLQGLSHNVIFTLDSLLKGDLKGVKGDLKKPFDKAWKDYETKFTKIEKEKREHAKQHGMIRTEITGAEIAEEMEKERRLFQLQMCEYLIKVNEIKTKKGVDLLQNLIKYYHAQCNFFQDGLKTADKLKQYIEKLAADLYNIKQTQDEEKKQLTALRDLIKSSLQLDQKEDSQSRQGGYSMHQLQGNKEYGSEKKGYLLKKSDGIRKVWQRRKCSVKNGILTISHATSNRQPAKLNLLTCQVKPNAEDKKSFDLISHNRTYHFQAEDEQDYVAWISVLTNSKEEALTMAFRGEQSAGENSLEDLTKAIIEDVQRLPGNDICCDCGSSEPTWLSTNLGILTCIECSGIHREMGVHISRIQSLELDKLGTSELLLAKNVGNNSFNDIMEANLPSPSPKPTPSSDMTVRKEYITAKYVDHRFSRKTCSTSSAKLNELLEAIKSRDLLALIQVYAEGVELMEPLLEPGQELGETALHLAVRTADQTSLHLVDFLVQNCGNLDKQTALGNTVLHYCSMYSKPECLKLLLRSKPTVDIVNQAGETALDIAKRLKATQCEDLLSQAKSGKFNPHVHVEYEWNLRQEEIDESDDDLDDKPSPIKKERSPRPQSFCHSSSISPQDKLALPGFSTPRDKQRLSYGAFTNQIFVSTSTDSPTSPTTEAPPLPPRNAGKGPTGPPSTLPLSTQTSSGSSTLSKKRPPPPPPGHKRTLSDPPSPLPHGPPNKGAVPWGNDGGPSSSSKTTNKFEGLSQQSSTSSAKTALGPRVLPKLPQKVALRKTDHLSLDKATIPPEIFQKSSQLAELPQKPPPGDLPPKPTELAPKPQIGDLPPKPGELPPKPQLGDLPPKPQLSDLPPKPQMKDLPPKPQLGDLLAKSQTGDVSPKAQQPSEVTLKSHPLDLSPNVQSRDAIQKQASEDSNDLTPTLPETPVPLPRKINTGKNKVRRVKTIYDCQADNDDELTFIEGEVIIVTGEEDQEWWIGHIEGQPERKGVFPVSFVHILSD

[11] = biological target: T3, Small ubiquitin-related modifier 1; assay: SUMO1 protein interaction blockers, potency – biochemical, fluorescence polarization, uHTS hits, dose response (AID 624382); type: functional; details: read-out: IC50_Mean
Steroidogenic factor 1 = Steroidogenic factor 1 (Homo sapiens, UniProt Q13285); assay: Counterscreen for inverse agonists of the liver receptor homolog-1 (LRH-1; NR5A2): Luminescence-based cell-based high throughput dose response assay to identify inverse agonists of the Steroidogenic Factor 1 Nuclear Receptor (SF1; NR5A1).; type: functional
Sequence of Steroidogenic factor 1 (Q13285 whole entry): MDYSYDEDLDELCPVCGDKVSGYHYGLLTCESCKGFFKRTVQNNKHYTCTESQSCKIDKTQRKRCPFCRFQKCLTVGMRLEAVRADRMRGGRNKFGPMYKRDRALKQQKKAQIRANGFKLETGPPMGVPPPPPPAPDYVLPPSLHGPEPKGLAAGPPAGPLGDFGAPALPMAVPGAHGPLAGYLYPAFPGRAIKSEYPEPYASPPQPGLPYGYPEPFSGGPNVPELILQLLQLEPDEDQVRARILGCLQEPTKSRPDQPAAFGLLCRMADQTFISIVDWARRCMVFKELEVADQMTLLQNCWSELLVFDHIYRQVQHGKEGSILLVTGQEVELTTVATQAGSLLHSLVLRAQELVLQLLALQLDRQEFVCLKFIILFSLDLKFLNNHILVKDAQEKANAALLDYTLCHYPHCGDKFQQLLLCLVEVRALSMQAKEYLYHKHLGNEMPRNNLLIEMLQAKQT

[12] = nonselective StAR promoter luciferase inhibitors – cell-based, luminescence, luciferase reporter, counter-screen for LRH-1 inverse agonist project, dose response (AID 651969); type: functional
[13] = biological target: Nuclear receptor subfamily 5 group A member 2 (Homo sapiens, UniProt O00482); type: functional, cell-based;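 note: HEK293T cells transfected with LRH-1 and a StAR promoter luciferase reporter; potency for inhibitors that lower LRH-1 driven reporter light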
Sequence of Nuclear receptor subfamily 5 group A member 2 (O00482 whole entry): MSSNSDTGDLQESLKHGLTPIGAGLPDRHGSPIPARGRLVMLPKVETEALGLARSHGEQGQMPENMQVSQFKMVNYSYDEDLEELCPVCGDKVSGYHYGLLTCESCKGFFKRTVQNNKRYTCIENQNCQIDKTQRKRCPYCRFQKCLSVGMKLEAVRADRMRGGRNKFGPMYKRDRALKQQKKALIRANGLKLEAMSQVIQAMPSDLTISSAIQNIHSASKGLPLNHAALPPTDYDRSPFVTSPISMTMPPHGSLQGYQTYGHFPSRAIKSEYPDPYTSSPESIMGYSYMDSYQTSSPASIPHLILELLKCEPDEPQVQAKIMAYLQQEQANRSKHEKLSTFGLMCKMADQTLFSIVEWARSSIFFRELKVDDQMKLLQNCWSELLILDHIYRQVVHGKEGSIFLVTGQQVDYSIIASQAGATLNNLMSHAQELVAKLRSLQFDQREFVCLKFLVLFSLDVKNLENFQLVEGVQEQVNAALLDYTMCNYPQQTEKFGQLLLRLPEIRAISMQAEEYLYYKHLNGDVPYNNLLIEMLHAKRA

Genome polyprotein = Genome polyprotein (dengue virus type 2, UniProt P29990); assay: flavivirus cap methylation enzyme inhibition – biochemical, confirmation dose response, primary screen (AID 588689); type: functional
Sequence of Genome polyprotein (P29990 2492-3391 limits assumed): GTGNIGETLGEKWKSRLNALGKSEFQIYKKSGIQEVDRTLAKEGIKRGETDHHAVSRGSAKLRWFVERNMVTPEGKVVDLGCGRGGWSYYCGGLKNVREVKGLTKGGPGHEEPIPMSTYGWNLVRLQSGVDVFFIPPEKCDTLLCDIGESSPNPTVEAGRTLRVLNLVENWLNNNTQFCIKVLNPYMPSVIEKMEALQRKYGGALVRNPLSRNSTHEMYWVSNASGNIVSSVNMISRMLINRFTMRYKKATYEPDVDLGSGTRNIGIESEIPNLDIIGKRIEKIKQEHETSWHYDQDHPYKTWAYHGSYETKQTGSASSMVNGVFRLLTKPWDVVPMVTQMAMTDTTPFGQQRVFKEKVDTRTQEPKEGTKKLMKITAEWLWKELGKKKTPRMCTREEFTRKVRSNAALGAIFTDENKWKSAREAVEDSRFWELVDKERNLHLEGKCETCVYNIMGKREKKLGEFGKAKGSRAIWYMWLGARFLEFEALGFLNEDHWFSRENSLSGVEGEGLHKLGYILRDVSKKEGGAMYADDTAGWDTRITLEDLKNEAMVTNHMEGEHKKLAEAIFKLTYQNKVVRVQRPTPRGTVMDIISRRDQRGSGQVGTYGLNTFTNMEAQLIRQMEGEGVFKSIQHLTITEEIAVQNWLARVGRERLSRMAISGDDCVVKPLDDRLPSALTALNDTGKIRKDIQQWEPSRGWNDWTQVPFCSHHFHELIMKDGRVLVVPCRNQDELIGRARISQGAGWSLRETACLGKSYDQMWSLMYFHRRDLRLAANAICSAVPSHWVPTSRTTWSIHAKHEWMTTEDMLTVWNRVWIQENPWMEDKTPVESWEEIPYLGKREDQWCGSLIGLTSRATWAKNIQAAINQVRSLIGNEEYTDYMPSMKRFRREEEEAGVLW

[14] = biological target: T4, Rac GTPase-activating protein 1 (Homo sapiens, UniProt Q9H0H5); assay: blockers of MgcRacGAP-driven Rac1 GTP hydrolysis – biochemical, ADP Hunter fluorescence, primary and confirmatory, confirmation (AID 624330); type: functional
T4 sequence (Q9H0H5 whole entry): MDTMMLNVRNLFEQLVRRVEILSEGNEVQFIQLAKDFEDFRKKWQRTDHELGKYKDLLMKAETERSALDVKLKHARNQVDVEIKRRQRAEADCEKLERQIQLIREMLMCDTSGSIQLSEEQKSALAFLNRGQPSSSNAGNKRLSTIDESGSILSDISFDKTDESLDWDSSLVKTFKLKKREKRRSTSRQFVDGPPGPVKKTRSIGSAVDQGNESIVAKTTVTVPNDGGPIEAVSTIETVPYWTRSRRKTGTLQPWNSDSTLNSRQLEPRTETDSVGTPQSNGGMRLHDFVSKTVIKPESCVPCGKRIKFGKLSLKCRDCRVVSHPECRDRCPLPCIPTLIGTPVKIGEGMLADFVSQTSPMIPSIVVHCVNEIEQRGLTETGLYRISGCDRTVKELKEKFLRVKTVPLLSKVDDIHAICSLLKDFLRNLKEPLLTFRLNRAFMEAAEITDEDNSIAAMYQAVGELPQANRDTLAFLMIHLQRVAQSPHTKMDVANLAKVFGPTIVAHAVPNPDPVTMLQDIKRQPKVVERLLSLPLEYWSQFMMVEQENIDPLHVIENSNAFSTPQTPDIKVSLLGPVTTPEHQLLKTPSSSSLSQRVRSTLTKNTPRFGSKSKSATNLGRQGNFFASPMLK

Vero = assay: viability loss in Vero cells – cell-based, plate reader, cherry-pick samples, cytotoxicity control, dose response (AID 687020); type: functional; details: Chlorocebus sabaeus
[15] = biological target: Tyrosine-protein phosphatase non-receptor type 11 (Homo sapiens, UniProt Q06124); assay: PTPN11 enzyme inhibitors – biochemical, selectivity assay for STEP inhibitor project, dose response (AID 602367); type: functional; details: read-out: IC50_Mean
Sequence of Tyrosine-protein phosphatase non-receptor type 11 (Q06124 whole entry): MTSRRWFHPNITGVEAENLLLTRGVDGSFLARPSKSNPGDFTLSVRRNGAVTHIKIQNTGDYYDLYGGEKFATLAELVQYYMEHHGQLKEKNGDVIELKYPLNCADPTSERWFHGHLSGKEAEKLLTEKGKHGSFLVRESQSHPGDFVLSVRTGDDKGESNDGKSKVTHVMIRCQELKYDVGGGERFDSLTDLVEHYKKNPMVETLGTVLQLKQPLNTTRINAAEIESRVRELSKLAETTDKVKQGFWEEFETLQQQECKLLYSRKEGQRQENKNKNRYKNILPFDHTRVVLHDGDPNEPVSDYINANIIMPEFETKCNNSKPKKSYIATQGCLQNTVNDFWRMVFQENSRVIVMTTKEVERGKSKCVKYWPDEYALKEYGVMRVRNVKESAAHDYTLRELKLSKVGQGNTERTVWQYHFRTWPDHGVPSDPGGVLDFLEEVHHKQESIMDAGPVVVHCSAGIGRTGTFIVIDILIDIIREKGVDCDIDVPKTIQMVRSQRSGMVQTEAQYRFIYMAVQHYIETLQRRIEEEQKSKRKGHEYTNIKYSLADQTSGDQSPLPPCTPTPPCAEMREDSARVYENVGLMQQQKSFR

[16] = biological target: Tyrosine-protein phosphatase non-receptor type 5 (Homo sapiens, UniProt P54829); assay: PTPN5 enzyme inhibition – biochemical, fluorescence intensity, uHTS hits, confirmation (AID 602372); type: functional; details: read-out: IC50_Mean
Sequence of Tyrosine-protein phosphatase non-receptor type 5 (P54829 whole entry): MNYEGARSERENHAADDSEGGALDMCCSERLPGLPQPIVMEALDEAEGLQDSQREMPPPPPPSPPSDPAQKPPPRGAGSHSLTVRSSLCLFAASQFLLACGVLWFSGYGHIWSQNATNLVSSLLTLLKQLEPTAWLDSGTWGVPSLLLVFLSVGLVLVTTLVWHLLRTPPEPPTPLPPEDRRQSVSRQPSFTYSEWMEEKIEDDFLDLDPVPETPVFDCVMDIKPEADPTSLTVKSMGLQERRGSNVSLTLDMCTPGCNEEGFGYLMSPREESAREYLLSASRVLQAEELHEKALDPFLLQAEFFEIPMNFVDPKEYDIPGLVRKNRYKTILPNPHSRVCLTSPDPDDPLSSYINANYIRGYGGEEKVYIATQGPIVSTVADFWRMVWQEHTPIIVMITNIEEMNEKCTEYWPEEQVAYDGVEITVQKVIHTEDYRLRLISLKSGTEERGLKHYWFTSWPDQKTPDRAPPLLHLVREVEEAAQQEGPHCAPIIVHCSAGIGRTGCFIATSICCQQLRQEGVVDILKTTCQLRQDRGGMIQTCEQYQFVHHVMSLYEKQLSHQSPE

[17] = biological target: Dual specificity protein phosphatase 3 (Homo sapiens, UniProt P51452); assay: VHR phosphatase inhibition, dose response, selectivity assay for STEP inhibitor project, biochemical (AID 602374); type: functional; details: read-out: IC50_Mean
Sequence of Dual specificity protein phosphatase 3 (P51452 whole entry): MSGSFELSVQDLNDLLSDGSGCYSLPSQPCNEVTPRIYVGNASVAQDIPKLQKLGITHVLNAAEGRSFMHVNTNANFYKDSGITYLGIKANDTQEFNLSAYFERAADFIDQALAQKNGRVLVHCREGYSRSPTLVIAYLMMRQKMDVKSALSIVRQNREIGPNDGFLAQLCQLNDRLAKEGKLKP

Melanocortin receptor 4 = Melanocortin receptor 4 (Homo sapiens, UniProt P32245); type: functional, cell-based;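 note: Cell-based assay with luminescence read-out, confirmatory dose-response testing for agonist activity of biased ligands at MC4R; human U2OS cells with tagged receptor and beta-arrestin; potency of agonists that increase receptor coupling to beta-arrestin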
[18] = Luminescence Cell-Based Dose Retest to Confirm Inhibitors of Cancer Stem Cells. [Related pubchem assays (depositor defined):AID2717, AID2721]; type: functional; details: Homo sapiens
[19] = viability loss of HMLE_sh_eGFP cells – cell-based, luminescence, counter-screen for HMLE_sh_ECad selective toxicity project, dose response (AID 463074); type: functional, Homo sapiens;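 note: HMLE human mammary epithelial cells expressing control shRNA against eGFP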
[20] = biological target: Photoreceptor-specific nuclear receptor (Homo sapiens, UniProt Q9Y5X4); type: functional, cell-based;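 note: CHO-S cells with Gal4-NCOR and VP16-NR2E3 two-hybrid luciferase reporter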
Sequence of Photoreceptor-specific nuclear receptor (Q9Y5X4 whole entry, the tested form may be a part): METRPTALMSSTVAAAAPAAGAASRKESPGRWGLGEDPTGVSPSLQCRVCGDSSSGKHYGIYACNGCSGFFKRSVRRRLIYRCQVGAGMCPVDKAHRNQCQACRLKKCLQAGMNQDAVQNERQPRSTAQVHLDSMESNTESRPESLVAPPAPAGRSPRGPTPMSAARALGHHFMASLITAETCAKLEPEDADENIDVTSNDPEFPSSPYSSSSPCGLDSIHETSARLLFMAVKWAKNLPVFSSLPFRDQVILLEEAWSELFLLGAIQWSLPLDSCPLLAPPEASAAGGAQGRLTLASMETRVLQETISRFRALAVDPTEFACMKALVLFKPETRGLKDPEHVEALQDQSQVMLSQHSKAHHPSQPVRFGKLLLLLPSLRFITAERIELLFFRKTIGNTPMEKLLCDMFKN

[21] = biological target: Aryl hydrocarbon receptor (Homo sapiens, UniProt P35869); details: Potency;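 note: confirmatory quantitative high-throughput screen measuring activation of the AhR signaling pathway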
[22] = biological target: Glucose-6-phosphate 1-dehydrogenase (Homo sapiens, UniProt P11413); assay: inhibition of Homo sapiens G6PD, dose series – biochemical, fluorescence, selectivity assay for P. falciparum G6PD inhibitor project, dose response (AID 504792); type: functional
[23] = Fluorescence-based cell-based high throughput dose response assay for inhibitors of the interaction of nucleotide-binding oligomerization domain containing 2 (NOD2) and the receptor-interacting serine-threonine kinase 2 (RIPK2).; type: functional; details: Homo sapiens
Hexokinase = biological target: T5, Hexokinase (Trypanosoma brucei, UniProt Q38C41); assay: Confirmation assay for inhibitors of Trypanosoma brucei hexokinase 1-Analogue-first series. [Related pubchem assays (depositor defined):AID1430, AID1632, AID2516, AID2560, AID2579, AID2600, AID449725, AID492951]; type: functional
T5 sequence (Q38C41 whole entry): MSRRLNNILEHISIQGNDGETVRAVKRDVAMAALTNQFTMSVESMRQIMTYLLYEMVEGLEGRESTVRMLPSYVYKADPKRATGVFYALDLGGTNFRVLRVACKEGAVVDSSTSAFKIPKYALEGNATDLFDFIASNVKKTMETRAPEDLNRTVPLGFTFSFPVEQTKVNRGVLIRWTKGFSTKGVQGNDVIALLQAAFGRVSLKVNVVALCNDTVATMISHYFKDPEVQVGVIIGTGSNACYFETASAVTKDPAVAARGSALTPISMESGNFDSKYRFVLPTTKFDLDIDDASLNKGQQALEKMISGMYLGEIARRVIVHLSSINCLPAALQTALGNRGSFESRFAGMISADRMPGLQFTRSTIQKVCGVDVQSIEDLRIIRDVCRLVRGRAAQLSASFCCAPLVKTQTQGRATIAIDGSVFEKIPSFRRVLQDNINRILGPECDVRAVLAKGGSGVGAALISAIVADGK

In the case of `Cc1nnc(O)nc1N/N=C/c1ccco1`, the AC50 [1] is reported as 119 µM (active).

For `OC(COc1ccc2cc(Br)ccc2c1)Cn1ccnc1` (configuration not stated), the IC50 [2] was 83.3 µM (inactive), the IC50 [3] was 28.2 µM (inactive) and the EC50 (cells) was 0.126 µM (active). For the same compound, the EC50 [4] was > 60 µM (not active), the EC50 [5] was < 0.1 µM (active) and the IC50 [6] was 94.1 µM (inactive).

In the case of `Cc1cc(C)c2c(N)c(C(=O)c3ccc(Cl)c(Cl)c3)sc2n1`, the EC50 [4] is reported as > 60 µM (not active), the EC50 [5] is reported as 0.166 µM (active) and the IC50 [7] is reported as 14.2 µM (active). The IC50 [8] was 4.5 µM (active).

With `COC(=O)c1cccc(Nc2nc(-c3ccncc3)nc3ccccc23)c1` the IC50 [9] was 4.11 µM (active), the IC50 [10] was 10.5 µM (inactive) and the IC50 [11] was > 66.6 µM (inactive).

In the case of `NC(=O)C1CCN(C(=O)COc2ccc3c4c(c(=O)oc3c2)CCCC4)CC1`, the IC50 (Steroidogenic factor 1) is reported as 4.4 µM (active), the IC50 [12] is reported as 35.9 µM (inactive) and the IC50 [13] is reported as 3.98 µM (active).

With `COc1ccccc1Nc1ccc2c(O)cc(S(=O)(=O)O)cc2c1` the IC50 (Genome polyprotein) was 60.5 µM (active), the IC50 [9] was 3.41 µM (active) and the IC50 [14] was 90.4 µM (active). The IC50 [11] was > 66.6 µM (inactive).

In the case of `O=C(c1cccc(Cl)c1)N1CCC2(CC1)NCCc1[nH]cnc12`, the AC50 (Vero) is reported as 34 µM (active).

For `Cc1ccccc1N1CCN(C(=S)c2ccc(-c3cccc([N+](=O)[O-])c3)o2)CC1`, the IC50 [15] was 11.3 µM (active), the IC50 [16] was 62.2 µM (inactive) and the IC50 [17] was 4.61 µM (active).

With `COc1cc(/C=C2\Oc3ccc(C#Cc4ccc(O)cc4)cc3C2=O)cc(OC)c1` the EC50 (Melanocortin receptor 4) was > 89.2 µM (inactive), the AC50 [18] was 1.41 µM (active) and the AC50 [19] was 29.7 µM (active).

With `COc1ccc([C@@H]2C[C@H]3[C@@H](CN2S(=O)(=O)c2ccccc2)C(=O)C[C@@H](c2cccc(Cl)c2)N3S(=O)(=O)c2ccc(C)cc2)cc1` the IC50 [20] was 39.8 µM (inactive).

For `CCNP(=S)(OC)O/C(C)=C/C(=O)OC(C)C` (configuration not stated) [PROPETAMPHOS], the AC50 [21] was 50.1 µM (inconclusive).

With `O=C(Cn1sc2ccccc2c1=O)Nc1ccc(Cl)cc1` the IC50 [22] was 12.5 µM (active), the IC50 [23] was 7.04 µM (active) and the IC50 (Hexokinase) was 12.9 µM (active).

For `Cc1nn(CC(=O)Nc2ccc3c(c2)OCCO3)c(C)c1[N+](=O)[O-]`, the IC50 (Steroidogenic factor 1) was 3.1 µM (active), the IC50 [12] was 35.9 µM (inactive) and the IC50 [13] was 14.3 µM (inactive).

For `COc1ccc(NC(=O)CSc2c(C)nn(-c3nnc(C)c(O)n3)c2C)cc1`, the AC50 [1] was 133 µM (active).
